The text below walks through data of a melting point compilation (Tetko et al.; mined from patent text by program, amines drawn as free bases though some values may be those of a salt).

The compound `CC(n1cncn1)C(O)(Cn1cncn1)c1ccc(Cl)cn1` (stereo unspecified) had a melting point of 156 to 157 °C.

The compound `CC1NS(=O)(=O)c2sccc21` (stereo unspecified) gave a melting point of 79 to 81 °C.

For the compound `O=C(OCc1ccccc1)[C@@H]1CCC(=O)N1C(=O)c1ccccc1`, the melting point is 101 °C.

Compound `CN(C)CCCOc1ccc2ccc(NC(=O)c3c(F)cccc3F)nc2n1` had a melting point of 190 °C.

As to `OCCc1c[nH]c2cc(-c3cc(Nc4ccc(N5CCOCC5)cn4)c4nccn4c3)ccc12`, the melting point was in the range of 159 to 161 °C.

Consider `COc1cc2cc(-c3ccc4c(c3)OCO4)nc(C)c2cc1OC`, for which the melting point was 174 °C.

Turning to `COCNC(=O)NC1CCC(=O)c2sccc21` (stereo unspecified), the melting point is 155 to 158 °C.

`O=C(O)CN1C(=O)C(=Cc2ccc(Cc3cccnc3)s2)SC1=S` showed a melting point of 254 to 256 °C.

Regarding `C=Cc1ccc(-n2cnc([N+](=O)[O-])n2)c(C#N)c1`, the melting point was in the range of 103 to 105 °C.

Take `[O-][N+](=Cc1ccccc1)CCCCCC[N+]([O-])=Cc1ccccc1`: the melting point was found to be 105 °C.

As to `COC(=O)C1(Nc2cc(Cl)c(Cl)cc2N)CCSC1` (stereo unspecified), the melting point was determined as 162 °C.

`CC(Cn1cc(Sc2ccccc2)c2ccccc21)N(O)C(N)=O` (stereo unspecified) gave a melting point of 73 to 76 °C.

In turn, `COc1cn(-c2cc(N3CCCC3=O)ccc2F)nc(-c2ccnn2-c2ccccc2)c1=O` had a melting point of 171 to 174 °C.

`CCOc1ccc(Nc2nnc(Cc3ccncc3)c3ccccc23)cc1`: the melting point lay within 223 to 224 °C.

In turn, `Cc1nc(CN)c2n1-c1ccc(Cl)cc1C(c1ccccc1)=NC2` gave a melting point of 217 to 219 °C.

In turn, `COc1cc(Nc2nc3c(s2)CCCC3c2ccccc2)ccc1-c1nc(C)no1` (stereo unspecified) gave a melting point of 228 to 231 °C.

`CN1CCN(C(=O)Cc2c(-c3ccc(Cl)cc3)nc3ccccn23)CC1` gave a melting point of 175 °C.

`CC(=O)Oc1cccc2c1C(=O)c1c(O)cccc1C2C(=O)C1CCCCC1` (stereo unspecified) returned a melting point of 154 °C.

For `CC1(C)CCCC2(C)C1CCC(C)(O)C2CCO` (stereo unspecified), the melting point lay in the range of 130 to 132 °C.

`COc1cc2nc(N3CCc4c(CO)cccc4C3)[nH]c(=O)c2cc1OC` gave a melting point of 200 to 206 °C.

As for `CCCN(CCC)Cc1nc(-c2ncn3c2CN(C)C(=O)c2sccc2-3)no1`, the melting point is 128 to 130 °C.

Turning to `COc1cccc(CNc2nc(Cl)nc3c2nc(Br)n3C(C)C)c1`, the melting point lay in the range of 123 to 125 °C.

Take `COc1cc(C)nc(NC(=O)NS(=O)(=O)c2c(C)nn(C)c2OC)n1`: the melting point was in the range of 183 to 184 °C.

For `COc1ccc(-n2c(=O)oc(=O)c3ccccc32)cc1`, the melting point was in the range of 215 to 216 °C.

In the case of `Cc1nc2c(-c3cccc(N4CCN(CCO)CC4)c3)cnn2c(N)c1-c1cccc(Cl)c1`, the melting point is 108 to 116 °C.

The compound `Nc1ccc(Cn2nc3ccccc3n2)cc1` showed a melting point of 229 to 230 °C.

`CCOC(=O)c1cn(C2CC2)c2c(F)c(N3CC(OS(C)(=O)=O)C3)c(F)cc2c1=O` had a melting point of 191 to 193 °C.

`O=C(NC1CC1)OC1c2ccccc2C(=O)N1c1ccc2ccc(Cl)nc2n1` (stereo unspecified) displayed a melting point of 220 °C.

For the compound `O=C1NC(=O)C(S(=O)c2ccc3ccccc3c2)S1` (stereo unspecified), the melting point fell in the range of 157 to 158 °C.

Regarding `CC1(O)C=CC2C3CCC4=CC(=O)CCC4C3C(c3ccc(-c4cccnc4)cc3)CC21C` (stereo unspecified), the melting point came to 159 °C.

In turn, `Clc1cccc(N2CCN(CCCOc3ccc4cn[nH]c4c3)CC2)c1Cl` returned a melting point of 159 to 161 °C.

In turn, `CCOC(=O)N1CCOC(CN2C(=O)c3ccccc3C2=O)C1` (stereo unspecified) registered a melting point of 113 to 115 °C.

The compound `CC1CCCN1c1ccc(C#N)c2occc12` (stereo unspecified) yielded a melting point of 82 to 83 °C.

`CCc1noc(-c2ncn(-c3cccc(O)c3)c2COC)n1` registered a melting point of 98 to 99 °C.

As for `CC1(C)C(=O)C(C)(C)c2cc(C(F)CN3CCN(c4nsc5ccccc45)CC3)ccc21` (stereo unspecified), the melting point fell in the range of 64 to 73 °C.

`CC(=O)OCc1c(Br)cccc1N1Cc2cc(N(C)C)ccc2C1=O` gave a melting point of 93 to 95 °C.

Compound `Cc1ncc(OC2CCCCO2)c(=O)[nH]1` (stereo unspecified) registered a melting point of 149 to 151 °C.

Consider `Cn1c(=O)c(=NO)nc(-c2ccccc2)c2ccccc21`, for which the melting point was in the range of 239 to 242 °C.

In turn, `Cc1ccccc1COCCCC(=O)O` registered a melting point of 79 to 80 °C.

As to `NC(=O)c1[nH]c2ccc(Cl)cc2c1S(=O)(=O)c1ccc(Cl)cc1`, the melting point is 275 to 277 °C.

As to `CCCC1=C(C(=O)OCC)C(c2ccccc2Cl)c2c[nH]nc2N1` (stereo unspecified), the melting point was 202 to 205 °C.

As for `CCCCc1nc2c(N)nc3cc(OCc4ccccc4)ccc3c2n1CCOc1ccccc1`, the melting point lay within 188 to 189 °C.

`CC(=O)Oc1ccc2c(=O)c(C#N)c(C)oc2c1` returned a melting point of 140 to 141 °C.

Turning to `CC(C)(C(=O)NCCn1ccc2ncnc(Nc3ccc(Oc4cccc(C(F)(F)F)c4)c(Cl)c3)c21)S(C)(=O)=O`, the melting point lay within 167 to 168 °C.

`COc1cnc2c(-c3cccc(C(F)(F)F)c3)ccc(C)c2n1`: the melting point fell in the range of 141 to 142 °C.

`COC(=O)C1(C)CN(C(=O)Nc2ccc(C(F)(F)F)cc2)N=C1c1ccc(Cl)cc1` (stereo unspecified) showed a melting point of 143 to 146 °C.

In turn, `CCCCCCCCCCCCCS(=O)c1nc(NC(=O)Nc2c(C(C)C)cccc2C(C)C)n[nH]1` (stereo unspecified) displayed a melting point of 178 to 181 °C.

In turn, `O=C(O)Cc1csc(-c2cc3cccc(NS(=O)(=O)c4cccs4)c3[nH]2)n1` gave a melting point of 228 to 229 °C.

On to `O=C(Nc1ccc[nH]c1=O)c1ccccc1F`, for which the melting point came out at 223 °C.

Compound `Cc1nc(N2CCCC(Cc3ccc(C(F)(F)F)cc3)C2=O)sc1C(=O)NCc1ccccc1` (stereo unspecified) returned a melting point of 217 to 218 °C.

For the compound `Cc1ccc(C2=NNC(=O)CC2)c(OCC(O)CNC(C)(C)C)c1` (stereo unspecified), the melting point was 130 °C.

As to `CCc1cccc2c1N(CC(=O)N1CC3CCC(CC3)C1)C(=O)C(NC(=O)Nc1cccc(C)c1)N=C2c1ccccc1F` (stereo unspecified), the melting point was in the range of 163 to 168 °C.

In the case of `O=c1n(CCCF)nnn1-c1cc([N+](=O)[O-])c(Cl)cc1F`, the melting point fell in the range of 80 to 81 °C.

As to `CC(C)(C)OC(=O)NC1CCCOCC=CC2CC2(C(=O)NS(=O)(=O)C2CC2)NC(=O)C2CC(OC(=O)NCC3CCCCC3)CN2C1=O` (stereo unspecified), the melting point lay within 142 to 144 °C.

Regarding `CON1C(C)(C)CC(CCCCNc2nc(N)nc(NCCCCC3CC(C)(C)N(OC)C(C)(C)C3)n2)CC1(C)C`, the melting point lay within 163 to 165 °C.

With `Cc1ccnc(C(=O)c2[nH]c3ccc(Cl)cc3c2CC(=O)O)c1`, the melting point lay in the range of 230 to 231 °C.

In the case of `COc1ccc(C(=O)NCCc2ccc(-c3ccc(OC(C)(C)C(=O)O)cc3)cc2)cc1`, the melting point is 180 to 183 °C.

Take `COc1cc(OC)nc(-n2c(N)nc3cc(C)ccc32)n1`: the melting point is over 300 °C.

Take `CC1=C(c2cccc(C(F)(F)F)c2)n2ncc(C(N)=O)c2NC1`: the melting point is 200 to 202 °C.

Regarding `COC(=O)CCC(=O)c1ccc(C)cc1OCC(O)CNC(C)(C)C` (stereo unspecified), the melting point was 82 to 84.5 °C.

On to `O=C(OCCN1CCN(c2cccc(C(F)(F)F)c2)CC1)c1sccc1Nc1ccnc2cc(Cl)ccc12`, for which the melting point turned out to be 80 °C.

`Cc1sc(C(N)=O)c2c1-c1nn(C)cc1CC2` registered a melting point of 276 to 277 °C.

For `Cc1cccc(C(=O)C2=C(O)C(=O)N(c3ccc(C)nn3)C2c2ccc(C(C)C)cc2)c1` (stereo unspecified), the melting point was in the range of 245 to 250 °C.

Regarding `CC[C@H](C)[C@H](NC(=O)Nc1ccccc1C(F)(F)F)C(=O)N[C@H](CO)Cc1c[nH]c2ccccc12`, the melting point was in the range of 232 to 234 °C.

Compound `O=C(CC1CC(O)CO1)NC1CCC(CCN2CCN(c3nccc4c3CCO4)CC2)CC1` (stereo unspecified) came in with a melting point of 155 °C.

In turn, `O=C1Nc2ccc(-c3cccc([N+](=O)[O-])c3)cc2C2(CCCCC2)O1` had a melting point of 245 to 246 °C.

Take `Cc1c(C2(c3ccccc3)CCC(c3ccccc3)(N(C)C)CC2)[nH]c2ccccc12` (stereo unspecified): the melting point is 193 to 207 °C.

For `Cc1ccc(S(=O)(=O)N2CCN(C(c3ccccc3)c3ccc(Cl)cc3)CC2)cc1` (single isomer, unassigned; (+)), the melting point was determined as 171 °C.

`CC(C)(C)OC(=O)NC(Cc1ccccc1)C(O)CNCC(O)C(Cc1ccccc1)NC(=O)OC(C)(C)CCCNCc1ccccc1` (stereo unspecified) yielded a melting point of 128 to 132 °C.

`COc1ccc(N2CCN(C=C3C(=O)Nc4cc(OC)c(OC)cc43)CC2)cc1OC` gave a melting point of 193 to 195 °C.

Compound `COc1cc2cnnc(Cl)c2cc1OC` registered a melting point of 195 to 197 °C.

`Cc1ccc(N2CCN(c3c(C)c(C)c4c(c3C)CC(C)O4)CC2)cc1` (stereo unspecified): the melting point was 150 to 151 °C.

For `COc1ccc(CN2C(=O)C3(COc4cc5c(cc43)CCO5)c3ccccc32)cc1` (stereo unspecified), the melting point lay in the range of 120 to 121 °C.

Regarding `CC(C)c1ccc(S(=O)(=O)n2c(Cc3ccc(C(=O)O)c(O)c3)cc3cc(Cl)ccc32)cc1`, the melting point amounted to 139 °C.

`CC(Br)C(C)N1C(=O)C2(OCCCO2)c2cc(S(=O)(=O)N3CCCC3)ccc21` (stereo unspecified) gave a melting point of 152 to 153 °C.

Regarding `Nc1ccc(-c2ccc(Cl)cc2)cn1`, the melting point lay within 122 to 124 °C.

`CC(C)Cn1c(=O)[nH]c(=O)c2nccnc21` showed a melting point of 200 to 201 °C.

`COc1nc(N)nc2c1ncn2C1OC(CO)C(OC(=O)C(C)(C)C)C1O` (stereo unspecified) gave a melting point of 113 to 115 °C.

`N#Cc1ccccc1CCc1n[nH]c2c1c(=O)n(-c1ccccc1)c1ncccc21` displayed a melting point of 316 °C.

With `COc1ccc2c(c1)c(OC(C)C)c(C(N)=O)n2-c1ccccc1`, the melting point is 152 to 154 °C.

In the case of `O=[N+]([O-])c1ccc(CN2CCN(c3ccc(F)cc3)CC2)cc1`, the melting point lay within 139 to 141 °C.

Take `C[C@H]1CCCC(C)(C)[C@@H]1[C@H](O)c1ccc(C#N)cc1`: the melting point is 106 to 108 °C.

Compound `C[C@](N)(CO)CCc1ccc2oc(-c3ccccc3)nc2c1` showed a melting point of 128 °C.

Compound `COC(=O)C(C)Nc1c([N+](=O)[O-])cnn1-c1c(Cl)cc(C(F)(F)F)cc1Cl` (stereo unspecified) registered a melting point of 123 to 130 °C.

Compound `CN(C)C(=O)c1cccc2c1nc(-c1c(F)cccc1F)n2Cc1c(F)cccc1F` yielded a melting point of 213 to 214 °C.

The compound `Cn1c2cccc(Br)c2c2nc3ccccc3nc21` registered a melting point of 208 to 209 °C.
